From patent US8835632B2, “Methods to increase the photostability of dyes” (The University of North Carolina at Chapel Hill, priority 2007, dated 2014)

Assays:
Format in all cases: physicochemical
[1] = Absorption and fluorescence spectra, extinction coefficient, fluorescence quantum yield
Method: Absorption spectra were recorded on a Hewlett-Packard 8453 diode array UV-Vis spectrophotometer (Agilent Technologies, Inc., Santa Clara, Calif.), and fluorescence measurements were taken on a SPEX® Fluorolog 2 spectrofluorometer (HORIBA Jobin Yvon, Inc., Edison, N.J.). Melting points are not corrected. NMR spectra were obtained on a Varian Mercury 300 MHz (Varian, Inc., Palo Alto, Calif.) or on a Bruker 300 MHz DRX 300 spectrometer (Bruker Biospin Corp., Billerica, Mass.). Mass spectra were obtained on a Hewlett-Packard 1100 high-performance liquid chromatograph equipped with an 1100 mass selective detector (MS-ESI) (Agilent Technologies, Inc.).
With decreasing solvent polarity, the absorption maximum of dyes 1a-b, 2a-d shifted to longer wavelengths, and the intensity of the transition increased (Table 10, FIG. 11).
The SCRF/VSCRF predicted emission energies and the solute dipole moments before and after the vertical emission process are given in Table 16. The dipole moments of AI-BA(4) and AI-SO(4) are further decreased on the S1 surface after geometry relaxation (in MeOH solution), and then increased during the S1→S0 transition. This observation is consistent with the blue shifts of the emission bands of AI-BA(4) and AI-SO(4) with increasing solvent polarity from C6H6 to MeOH. By contrast, the dipole moment of I-SO further decreases after S1 state geometry relaxation, and then decreases during the vertical emission process. This observation also is in agreement with the red shift of the I-SO emission band with increasing solvent polarity from C6H6 to MeOH. Similarly to the absorption case, a negligible red shift (ΔEem=0.017 eV) was predicted for the emission band of I-TBA with increasing solvent polarity. A small red shift from C6H6 to DMF (with ΔEem=0.020 eV, or Δλmax=6 nm) is observed. The nearly equal emission energy observed in C6H6 and MeOH can again result in the explicit interactions between the solute and solvent molecules.

[2] = Photobleaching under constant illumination from a halogen tungsten lamp filtered through glass
From the text: The photostability of dyes can be important for applications in living cells. The mechanism of photobleaching for merocyanines of varying structure has been examined See Toutchkine et al., J. Am. Chem. Soc. 125:4132-4145 (2003). The photostability of the presently disclosed dyes was characterized by exposing them to constant illumination from a halogen tungsten lamp filtered through glass. This broad spectrum light source provided essentially equal intensity throughout the spectral range where the dyes absorb and where they would be irradiated in vivo (about 600 nm to about 650 nm).

[3] = Relative rate of reaction with chemically generated singlet oxygen in DMSO; details: 2.5 mM, 1O2 from 1,4-dimethylnaphtalene-1,4-endoperoxide
Method: The bleaching rates for the dyes differed by two orders of magnitude. The relative rate constants kr (rel) for product formation during reaction with singlet oxygen were measured by comparing the percent conversions for dyes dissolved in DMSO containing a fixed amount of ^1O2 (2.5 mM solutions; ^1O2 generated by decomposition of 1,4-dimethylnaphtalene-1,4-endoperoxide). The rates were generally higher for dyes with a polar ground state (1a, 2a, 2b, 2d) than for the dyes with their ground state at the “cyanine limit” (3, 4). […] Olefins without allylic hydrogens react with singlet oxygen to form dioxetanes. Dioxetanes are unstable and decompose, to form two carbonyl compounds.

[4] = MeOH, with respect to standard I-TBA in MeOH

## CC1(C)c2ccccc2-[n+]2ccc(/C=C/C=C/C3=C(O)c4ccccc4S3(=O)=O)cc21 [AI-SO]
[1]; Butanol (BuOH)
  Absorbance λmax: 650 nm
  Emission λmax: 675 nm
  Extinction coefficient ε: 118000
  Fluorescence quantum yield Φ: 0.92
[1]; C6H6
  Absorption energy Eabs Exp: 1.826 eV
  Emission energy Eem Exp: 1.794 eV
[1]; MeOH
  Absorption energy Eabs Exp: 2.120 eV
  Emission energy Eem Exp: 1.865 eV
[1]; Methanol (MeOH)
  Absorbance λmax: 610 nm
  Emission λmax: 654 nm
  Extinction coefficient ε: 65000
  Fluorescence quantum yield Φ: 0.54
[1]; Table 10, BuOH
  Observed absorption (ε): (118000)
  Observed absorption λmax: 650 nm
[1]; Table 10, C6H6
  Observed absorption (ε): (240000)
  Observed absorption λmax: 679 nm
[1]; Table 10, CH2Cl2
  Observed absorption (ε): (278000)
  Observed absorption λmax: 667 nm
[1]; Table 10, CH3CN
  Observed absorption (ε): (142000)
  Observed absorption λmax: 642 nm
[1]; Table 10, DMF
  Observed absorption (ε): (154000)
  Observed absorption λmax: 651 nm
[1]; Table 10, DMSO
  Observed absorption (ε): (118000)
  Observed absorption λmax: 644 nm
[1]; Table 10, EtOH
  Observed absorption (ε): (83000)
  Observed absorption λmax: 636 nm
[1]; Table 10, MeOH
  Observed absorption (ε): (65000)
  Observed absorption λmax: 610 nm
[1]; Table 10, OcOH
  Observed absorption (ε): (150000)
  Observed absorption λmax: 660 nm
[1]; Table 10, i-PrOH
  Observed absorption (ε): (122000)
  Observed absorption λmax: 648 nm
[1]; Table 12, C6H6
  Absorption Exp wavelength: 679 nm
[1]; Table 12, MeOH
  Absorption Exp wavelength: 585 nm
[1]; Table 15, BuOH
  Observed emission (Φ): 0.92
  Observed emission λmax: 675 nm
[1]; Table 15, C6H6
  Observed emission (Φ): 0.19
  Observed emission λmax: 691 nm
[1]; Table 15, CH2Cl2
  Observed emission (Φ): 0.54
  Observed emission λmax: 681 nm
[1]; Table 15, CH3CN
  Observed emission (Φ): 0.75
  Observed emission λmax: 667 nm
[1]; Table 15, DMF
  Observed emission λmax: 673 nm
[1]; Table 15, DMSO
  Observed emission λmax: 673 nm
[1]; Table 15, EtOH
  Observed emission (Φ): 0.82
  Observed emission λmax: 671 nm
[1]; Table 15, MeOH
  Observed emission (Φ): 0.54
  Observed emission λmax: 665 nm
[1]; Table 15, OcOH
  Observed emission (Φ): 0.88
  Observed emission λmax: 679 nm
[1]; Table 15, i-PrOH
  Observed emission (Φ): 0.96
  Observed emission λmax: 673 nm
[2]; C6H6
  kph * 10^6 (absolute rate of photobleaching): 128 s^−1
[2]; C6H6, with respect to standard I-SO in C6H6
  kph(rel) (relative rate of photobleaching): 115
[2]; MeOH
  kph * 10^6 (absolute rate of photobleaching): 89 s^−1
[2]; [4]
  kph(rel) (relative rate of photobleaching): 261
[3]
  kr(rel) (relative rate constants for product formation during reaction with singlet oxygen produced chemically): 59.2

## C[n+]1ccc(/C=C/C=C/C2=C([O-])c3ccccc3S2(=O)=O)cc1 [P-SO(4)]
[1]; Table 10, BuOH
  Observed absorption (ε): (64000)
  Observed absorption λmax: 593 nm
[1]; Table 10, C6H6
  Observed absorption (ε): (178000)
  Observed absorption λmax: 644 nm
[1]; Table 10, CH2Cl2
  Observed absorption (ε): (187000)
  Observed absorption λmax: 629 nm
[1]; Table 10, CH3CN
  Observed absorption (ε): (93000)
  Observed absorption λmax: 596 nm
[1]; Table 10, DMF
  Observed absorption (ε): (99000)
  Observed absorption λmax: 604 nm
[1]; Table 10, DMSO
  Observed absorption (ε): (77000)
  Observed absorption λmax: 599 nm
[1]; Table 10, EtOH
  Observed absorption (ε): (61000)
  Observed absorption λmax: 557 nm
[1]; Table 10, MeOH
  Observed absorption (ε): (54000)
  Observed absorption λmax: 580 nm
[1]; Table 10, OcOH
  Observed absorption (ε): (80000)
  Observed absorption λmax: 612 nm
[1]; Table 10, i-PrOH
  Observed absorption (ε): (68000)
  Observed absorption λmax: 597 nm
[1]; Table 15, BuOH
  Observed emission (Φ): 0.048
  Observed emission λmax: 640 nm
[1]; Table 15, C6H6
  Observed emission (Φ): 0.002
  Observed emission λmax: 656 nm
[1]; Table 15, CH2Cl2
  Observed emission (Φ): 0.082
  Observed emission λmax: 650 nm
[1]; Table 15, CH3CN
  Observed emission (Φ): 0.067
  Observed emission λmax: 632 nm
[1]; Table 15, DMF
  Observed emission (Φ): 0.10
  Observed emission λmax: 635 nm
[1]; Table 15, DMSO
  Observed emission (Φ): 0.067
  Observed emission λmax: 636 nm
[1]; Table 15, EtOH
  Observed emission (Φ): 0.029
  Observed emission λmax: 634 nm
[1]; Table 15, MeOH
  Observed emission (Φ): 0.018
  Observed emission λmax: 630 nm
[1]; Table 15, OcOH
  Observed emission (Φ): 0.082
  Observed emission λmax: 644 nm
[1]; Table 15, i-PrOH
  Observed emission (Φ): 0.049
  Observed emission λmax: 636 nm
[2]; MeOH
  kph * 10^6 (absolute rate of photobleaching): 28 s^−1
[2]; [4]
  kph(rel) (relative rate of photobleaching): 82
[3]
  kr(rel) (relative rate constants for product formation during reaction with singlet oxygen produced chemically): 60.3

## CCN1C(=O)\C(=C/C=C/C=C2/N(C)c3ccccc3C2(C)C)C(O)N(CC)C1=S (stereo not shown) [I-TBA, reference compound]
[1]; C6H6
  Absorption energy Eabs Exp: 2.123 eV
  Emission energy Eem Exp: 2.050 eV
[1]; MeOH
  Absorption energy Eabs Exp: 2.127 eV
  Emission energy Eem Exp: 2.056 eV
[1]; Table 10, BuOH
  Observed absorption (ε): (190000)
  Observed absorption λmax: 589 nm
[1]; Table 10, C6H6
  Observed absorption (ε): (127000)
  Observed absorption λmax: 584 nm
[1]; Table 10, DMF
  Observed absorption (ε): (183000)
  Observed absorption λmax: 589 nm
[1]; Table 10, MeOH
  Observed absorption (ε): (173000)
  Observed absorption λmax: 583 nm
[1]; Table 10, OcOH
  Observed absorption (ε): (180000)
  Observed absorption λmax: 590 nm
[1]; Table 12, C6H6
  Absorption Exp wavelength: 585 nm
[1]; Table 12, MeOH
  Absorption Exp wavelength: 583 nm
[1]; Table 15, BuOH
  Observed emission (Φ): 0.61
  Observed emission λmax: 609 nm
[1]; Table 15, C6H6
  Observed emission (Φ): 0.20
  Observed emission λmax: 605 nm
[1]; Table 15, DMF
  Observed emission (Φ): 0.94
  Observed emission λmax: 611 nm
[1]; Table 15, MeOH
  Observed emission (Φ): 0.26
  Observed emission λmax: 603 nm
[1]; Table 15, OcOH
  Observed emission (Φ): 0.99
  Observed emission λmax: 609 nm
[1]; from C6H6 to DMF
  Observed red shift of emission ΔEem: 0.020 eV
  Observed red shift of emission Δλmax: 6 nm
[1]; from C6H6 to OcOH
  Observed red shift of absorption Δλmax: 6 nm
[1]; from OcOH to MeOH
  Observed blue shift of absorption Δλmax: 7 nm
[2]; MeOH
  kph * 10^6 (absolute rate of photobleaching): 0.34 s^−1
[2]; [4]
  kph(rel) (relative rate of photobleaching): 1.00
[3]
  kr(rel) (relative rate constants for product formation during reaction with singlet oxygen produced chemically): 1.00
